Values after ≈ are worked out from the molar mass of the structure shown.
How the values were obtained:
[1] = Selectivity index, ratio of IC50 for African green monkey Vero cells to MIC for Mycobacterium tuberculosis H37Rv; type: toxicity, cell-based; details: read-out: Selectivity Index
[2] = system: Vero; experiment: Cytotoxicity against African green monkey Vero cells; type: cell-based; details: Chlorocebus sabaeus
[3] = system: Mycobacterium tuberculosis; experiment: Antitubercular activity against Mycobacterium tuberculosis H37Rv assessed as growth inhibition at 6.25 ug/ml after 4 days by microplate alamar blue assay; type: functional; details: 96 h
[4] = system: Mycobacterium tuberculosis; experiment: Antitubercular activity against Mycobacterium tuberculosis H37Rv assessed as growth inhibition by 2-fold dilution assay; type: functional

Row | SMILES | selectivity ratio [1] | IC50 [2] [µg/mL] | inhibition at 6.25 µg/mL [3] [%] | MIC [4] [µg/mL]
1 | Cc1nn(-c2ccc3c(c2)Nc2ccccc2S3)c2c1C(c1ccc([N+](=O)[O-])cc1)NC(N)=N2 (centres undefined) | 5.2 | 9.1 (≈ 19.4 µM) | 95 | 1.73 (≈ 3.68 µM)
2 | Cc1nn(-c2ccc3c(c2)Nc2ccccc2S3)c2c1C(c1ccccc1O)NC(N)=N2 (centres undefined) | 3.5 | 7.8 (≈ 17.7 µM) | 92 | 2.23 (≈ 5.06 µM)
3 | COc1ccc(C2NC(N)=Nc3c2c(C)nn3-c2ccc3c(c2)Nc2ccccc2S3)cc1 (centres undefined) |  |  | 42 | 
4 | Cc1nn(-c2ccc3c(c2)Nc2ccccc2S3)c2c1C(c1ccccc1[N+](=O)[O-])NC(N)=N2 (centres undefined) | 5.8 | > 10 | 94 | 1.73 (≈ 3.68 µM)
5 | Cc1nn(-c2ccc3c(c2)Nc2ccccc2S3)c2c1C(c1cccc([N+](=O)[O-])c1)NC(N)=N2 (centres undefined) |  |  | 73 | 
6 | NNC(=O)c1ccncc1 [ISONIAZID] | > 40000 | > 1000 |  | 0.03 (≈ 0.219 µM)
7 | Cc1nn(-c2ccc3c(c2)Nc2ccccc2S3)c2c1C(c1ccc(Cl)cc1)NC(N)=N2 (centres undefined) | > 500 | > 10 | 100 | 0.02 (≈ 0.0436 µM)
8 | Cc1nn(-c2ccc3c(c2)Nc2ccccc2S3)c2c1C(c1ccc(O)cc1)NC(N)=N2 (centres undefined) |  |  | 67 | 
9 | Cc1nn(-c2ccc3c(c2)Nc2ccccc2S3)c2c1C(c1ccccc1Cl)NC(N)=N2 (centres undefined) | 5.8 | > 10 | 95 | 1.73 (≈ 3.77 µM)
10 | Cc1nn(-c2ccc3c(c2)Nc2ccccc2S3)c2c1C(c1cccc(Cl)c1)NC(N)=N2 (centres undefined) |  |  | 56 | 
11 | Cc1nn(-c2ccc3c(c2)Nc2ccccc2S3)c2c1C(c1cccc(O)c1)NC(N)=N2 (centres undefined) |  |  | 57 | 
12 | Cc1nn(-c2ccc3c(c2)Nc2ccccc2S3)c2c1C(c1ccccc1)NC(N)=N2 (centres undefined) |  |  | 78 | 

Source: ChEMBL document CHEMBL3124789, “4,5-Dihydro-1H-pyrazolo[3,4-d]pyrimidine containing phenothiazines as antitubercular agents” (Bioorg Med Chem Lett, 2014)
